From ChEMBL document CHEMBL1201862, “PubChem BioAssay data set” (2004)
Each block holds one compound with its values, some of them ahead of it. Active and inactive are the calls of the source.

What was measured:
[1] = biological target: Nuclear receptor subfamily 5 group A member 2 (Homo sapiens, UniProt O00482); format: functional, cell-based;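 further: HEK293T cells transfected with LRH-1 and a StAR promoter luciferase reporter; potency for inhibitors that lower LRH-1 driven reporter light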
[2] = nonselective StAR promoter luciferase inhibitors – cell-based, luminescence, luciferase reporter, counter-screen for LRH-1 inverse agonist project, dose response (AID 651969); format: functional
[3] = biological target: Steroidogenic factor 1 (Homo sapiens, UniProt Q13285); test: Counterscreen for inverse agonists of the liver receptor homolog-1 (LRH-1; NR5A2): Luminescence-based cell-based high throughput dose response assay to identify inverse agonists of the Steroidogenic Factor 1 Nuclear Receptor (SF1; NR5A1).; format: functional
[4] = biological target: T1, Low molecular weight phosphotyrosine protein phosphatase (Homo sapiens, UniProt P24666); format: functional; conditions: read-out: IC50_Mean;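 further: Dose-response confirmation assay measuring inhibition of LMPTP enzyme activity by fluorescence intensity read-out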
T1 sequence (P24666 whole entry): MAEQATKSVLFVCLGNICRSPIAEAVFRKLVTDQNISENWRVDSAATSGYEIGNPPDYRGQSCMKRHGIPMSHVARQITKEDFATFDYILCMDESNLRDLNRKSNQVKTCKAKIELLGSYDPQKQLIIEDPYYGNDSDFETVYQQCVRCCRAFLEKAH

[5] = biological target: T2, Leucine aminopeptidase (Plasmodium falciparum 3D7, UniProt Q8IL11); test: P. falciparum M17LAP inhibitors, primary screen, biochemical, fluorogenic H-Leu-NHMec substrate, 1536-well (AID 1619); format: functional
T2 sequence (Q8IL11 whole entry): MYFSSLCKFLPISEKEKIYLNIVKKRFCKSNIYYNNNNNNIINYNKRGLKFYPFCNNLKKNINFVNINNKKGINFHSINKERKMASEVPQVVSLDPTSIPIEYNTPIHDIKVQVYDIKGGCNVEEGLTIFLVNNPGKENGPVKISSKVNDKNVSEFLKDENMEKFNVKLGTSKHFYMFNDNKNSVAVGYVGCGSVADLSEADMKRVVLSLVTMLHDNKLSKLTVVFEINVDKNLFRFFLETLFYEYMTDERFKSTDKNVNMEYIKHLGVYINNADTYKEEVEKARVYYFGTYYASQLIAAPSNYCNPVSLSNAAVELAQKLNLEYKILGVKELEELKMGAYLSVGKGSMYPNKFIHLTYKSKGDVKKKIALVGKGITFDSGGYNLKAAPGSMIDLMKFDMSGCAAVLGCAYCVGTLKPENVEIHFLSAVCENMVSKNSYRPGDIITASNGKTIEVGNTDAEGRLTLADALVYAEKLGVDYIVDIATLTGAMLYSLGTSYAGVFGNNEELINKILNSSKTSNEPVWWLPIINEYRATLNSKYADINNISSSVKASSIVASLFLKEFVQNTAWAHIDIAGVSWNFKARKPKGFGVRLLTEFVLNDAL

[6] = general mammalian cell viability loss – inhibitor set, cherry-pick, set 2, cytotoxicity control for miR-122 modulator project, dose response (AID 720697); format: functional, cell-based
[7] = biological target: Large T antigen (Simian virus 40, UniProt P03070); format: functional, Betapolyomavirus macacae;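 further: Confirmatory-stage PubChem screen for compounds that inhibit SV40 T antigen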
[8] = activation of miR-122 Renilla sensor silencing – cell-based, Huh7 psiCHECK-miR122, Renilla luciferase, cherry-picked, dose response (AID 651956); format: functional;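 further: huh7 hepatoma cells stably carrying a psiCHECK-2 miR-122 sensor plasmid; renilla luciferase signal reporting endogenous miR-122 activity after 48 h compound exposure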
[9] = biological target: T3, DNA repair and recombination protein RAD54-like (Homo sapiens, UniProt Q92698); test: RAD54 Holliday junction migration blockers – biochemical, fluorescence, cherry-picked samples, dose series, confirmation (AID 651657); format: functional
T3 sequence (Q92698 whole entry): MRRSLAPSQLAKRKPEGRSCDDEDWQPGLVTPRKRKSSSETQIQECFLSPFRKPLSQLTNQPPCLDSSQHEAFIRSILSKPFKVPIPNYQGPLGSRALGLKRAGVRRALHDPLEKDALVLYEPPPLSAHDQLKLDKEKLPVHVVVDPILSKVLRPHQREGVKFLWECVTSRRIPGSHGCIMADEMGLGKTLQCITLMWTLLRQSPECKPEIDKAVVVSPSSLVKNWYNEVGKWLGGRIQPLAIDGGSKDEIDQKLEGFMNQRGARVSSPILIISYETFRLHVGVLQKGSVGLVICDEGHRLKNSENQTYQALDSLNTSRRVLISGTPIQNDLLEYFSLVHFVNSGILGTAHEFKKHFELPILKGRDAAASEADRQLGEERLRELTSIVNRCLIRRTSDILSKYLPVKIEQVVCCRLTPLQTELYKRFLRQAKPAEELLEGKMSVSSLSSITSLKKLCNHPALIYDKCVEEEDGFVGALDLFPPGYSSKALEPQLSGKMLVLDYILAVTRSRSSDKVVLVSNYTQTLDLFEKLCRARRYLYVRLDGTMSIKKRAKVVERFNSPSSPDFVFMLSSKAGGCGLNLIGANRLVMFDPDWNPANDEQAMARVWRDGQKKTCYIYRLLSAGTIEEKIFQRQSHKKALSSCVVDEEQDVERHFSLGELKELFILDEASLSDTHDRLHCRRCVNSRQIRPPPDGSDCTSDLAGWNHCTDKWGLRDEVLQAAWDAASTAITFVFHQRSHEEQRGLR

[10] = Counterscreen for activators of the function of SWI/SNF related, matrix associated, actin dependent regulator of chromatin, subfamily a, member 2 (SMARCA2, BRM): Luminescence-based cell-based high throughput dose response assay to identify non-selective compounds using the VP16 reporter assay.; format: functional
[11] = biological target: SWI/SNF-related matrix-associated actin-dependent regulator of chromatin subfamily A member 2 (Homo sapiens, UniProt P51531); test: Luminescence-based cell-based high throughput dose response assay to identify activators of the function of SWI/SNF related, matrix associated, actin dependent regulator of chromatin, subfamily a, member 2 (SMARCA2, BRM).; format: functional
[12] = acridine orange displacement from DNA – biochemical, fluorescence polarization, cherry-pick, artefact control for RAD54 inhibitor project, dose response (AID 651673); format: functional
[13] = cytotoxicity toward MDA-MB-231 breast cancer cells – cell-based, CellTiter-Glo luminescence, cherry-pick, cytotoxicity control for RAD54 inhibitor project, dose response (AID 651692); format: functional
[14] = biological target: T4, DNA repair protein RAD52 homolog (Homo sapiens, UniProt P43351); format: functional, biochemical
T4 sequence (P43351 whole entry): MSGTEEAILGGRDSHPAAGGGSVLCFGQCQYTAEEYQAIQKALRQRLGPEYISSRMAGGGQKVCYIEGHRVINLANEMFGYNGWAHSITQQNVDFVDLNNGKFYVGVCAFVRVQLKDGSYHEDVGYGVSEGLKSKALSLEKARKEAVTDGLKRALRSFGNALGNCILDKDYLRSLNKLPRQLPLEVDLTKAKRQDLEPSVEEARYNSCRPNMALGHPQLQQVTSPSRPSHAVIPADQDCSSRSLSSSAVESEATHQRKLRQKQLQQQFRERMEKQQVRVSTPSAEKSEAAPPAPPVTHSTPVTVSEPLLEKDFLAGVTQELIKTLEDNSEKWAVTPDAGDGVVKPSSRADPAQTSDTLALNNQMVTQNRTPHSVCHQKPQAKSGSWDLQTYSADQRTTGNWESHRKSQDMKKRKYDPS

[15] = biological target: DNA (cytosine-5)-methyltransferase 1 (Homo sapiens, UniProt P26358); test: inhibition of DNA methylation by DNMT1 – biochemical, fluorescent molecular beacon, confirmation (AID 602386); format: functional
DNA (cytosine-5)-methyltransferase 1, sequence (P26358 whole entry): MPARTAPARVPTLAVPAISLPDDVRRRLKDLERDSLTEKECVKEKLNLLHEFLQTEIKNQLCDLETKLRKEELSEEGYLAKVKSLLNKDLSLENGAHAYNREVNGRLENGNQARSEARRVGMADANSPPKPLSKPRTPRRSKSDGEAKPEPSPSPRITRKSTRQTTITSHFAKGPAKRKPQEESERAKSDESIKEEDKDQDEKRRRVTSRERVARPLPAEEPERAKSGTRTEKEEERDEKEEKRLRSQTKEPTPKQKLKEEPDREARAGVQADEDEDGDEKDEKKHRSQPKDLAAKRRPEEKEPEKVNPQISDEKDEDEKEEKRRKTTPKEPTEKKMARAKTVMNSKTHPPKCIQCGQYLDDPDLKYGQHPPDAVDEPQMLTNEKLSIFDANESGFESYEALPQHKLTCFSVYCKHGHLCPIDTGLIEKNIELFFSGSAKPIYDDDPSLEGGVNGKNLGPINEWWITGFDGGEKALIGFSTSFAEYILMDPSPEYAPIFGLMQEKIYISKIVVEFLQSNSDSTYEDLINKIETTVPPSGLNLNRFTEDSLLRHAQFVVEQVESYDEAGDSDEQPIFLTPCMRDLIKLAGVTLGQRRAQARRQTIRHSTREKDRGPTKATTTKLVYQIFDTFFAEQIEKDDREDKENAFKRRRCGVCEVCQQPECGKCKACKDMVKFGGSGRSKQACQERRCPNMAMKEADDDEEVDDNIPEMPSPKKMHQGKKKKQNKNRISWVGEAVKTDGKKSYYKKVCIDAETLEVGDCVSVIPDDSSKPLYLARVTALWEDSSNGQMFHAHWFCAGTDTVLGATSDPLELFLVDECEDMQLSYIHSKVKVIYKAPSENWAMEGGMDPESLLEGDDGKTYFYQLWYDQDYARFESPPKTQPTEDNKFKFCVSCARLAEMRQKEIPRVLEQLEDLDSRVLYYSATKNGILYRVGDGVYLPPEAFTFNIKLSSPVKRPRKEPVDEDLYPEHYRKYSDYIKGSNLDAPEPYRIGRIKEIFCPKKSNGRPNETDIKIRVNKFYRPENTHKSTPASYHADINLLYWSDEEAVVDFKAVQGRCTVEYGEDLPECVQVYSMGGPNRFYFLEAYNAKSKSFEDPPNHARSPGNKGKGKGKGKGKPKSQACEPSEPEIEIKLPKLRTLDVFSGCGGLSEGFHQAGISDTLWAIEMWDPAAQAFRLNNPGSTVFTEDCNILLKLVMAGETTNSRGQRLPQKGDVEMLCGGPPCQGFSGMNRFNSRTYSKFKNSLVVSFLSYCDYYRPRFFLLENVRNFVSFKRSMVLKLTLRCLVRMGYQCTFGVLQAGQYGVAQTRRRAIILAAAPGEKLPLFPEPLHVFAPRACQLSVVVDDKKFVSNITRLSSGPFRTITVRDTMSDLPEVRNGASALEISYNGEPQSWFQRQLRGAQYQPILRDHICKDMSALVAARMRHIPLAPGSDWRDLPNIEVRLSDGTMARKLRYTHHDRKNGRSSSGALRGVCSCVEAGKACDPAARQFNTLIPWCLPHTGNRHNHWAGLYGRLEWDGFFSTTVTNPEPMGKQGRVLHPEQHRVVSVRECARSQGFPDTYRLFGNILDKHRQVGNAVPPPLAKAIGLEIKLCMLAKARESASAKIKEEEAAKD

Steroidogenic factor 1, sequence (Q13285 whole entry): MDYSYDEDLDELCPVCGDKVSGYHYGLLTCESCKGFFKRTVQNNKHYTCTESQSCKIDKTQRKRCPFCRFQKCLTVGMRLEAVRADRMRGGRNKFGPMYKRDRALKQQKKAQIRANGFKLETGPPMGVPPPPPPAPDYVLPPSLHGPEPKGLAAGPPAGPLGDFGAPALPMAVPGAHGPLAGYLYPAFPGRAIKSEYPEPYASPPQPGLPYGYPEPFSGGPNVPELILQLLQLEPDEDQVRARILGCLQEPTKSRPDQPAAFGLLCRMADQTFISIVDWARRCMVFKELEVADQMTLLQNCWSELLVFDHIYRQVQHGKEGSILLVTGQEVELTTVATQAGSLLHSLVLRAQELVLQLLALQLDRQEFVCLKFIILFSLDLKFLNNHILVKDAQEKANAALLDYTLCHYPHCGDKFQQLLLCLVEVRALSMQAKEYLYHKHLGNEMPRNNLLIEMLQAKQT
Nuclear receptor subfamily 5 group A member 2, sequence (O00482 whole entry): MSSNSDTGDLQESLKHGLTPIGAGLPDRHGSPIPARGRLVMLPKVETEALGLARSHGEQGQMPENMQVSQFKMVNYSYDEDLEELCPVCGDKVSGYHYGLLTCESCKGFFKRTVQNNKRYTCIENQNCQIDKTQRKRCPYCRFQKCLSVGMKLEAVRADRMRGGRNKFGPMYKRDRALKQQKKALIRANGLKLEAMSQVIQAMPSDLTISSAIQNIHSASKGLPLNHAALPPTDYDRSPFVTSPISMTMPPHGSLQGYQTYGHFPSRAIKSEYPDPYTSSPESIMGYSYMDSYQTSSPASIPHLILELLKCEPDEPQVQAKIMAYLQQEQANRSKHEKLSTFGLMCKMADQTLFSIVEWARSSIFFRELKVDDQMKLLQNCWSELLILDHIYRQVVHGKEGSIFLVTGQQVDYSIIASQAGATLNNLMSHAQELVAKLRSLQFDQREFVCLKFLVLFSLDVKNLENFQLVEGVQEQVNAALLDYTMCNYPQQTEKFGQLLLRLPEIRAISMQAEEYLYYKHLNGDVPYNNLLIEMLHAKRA
Large T antigen, sequence (P03070 whole entry): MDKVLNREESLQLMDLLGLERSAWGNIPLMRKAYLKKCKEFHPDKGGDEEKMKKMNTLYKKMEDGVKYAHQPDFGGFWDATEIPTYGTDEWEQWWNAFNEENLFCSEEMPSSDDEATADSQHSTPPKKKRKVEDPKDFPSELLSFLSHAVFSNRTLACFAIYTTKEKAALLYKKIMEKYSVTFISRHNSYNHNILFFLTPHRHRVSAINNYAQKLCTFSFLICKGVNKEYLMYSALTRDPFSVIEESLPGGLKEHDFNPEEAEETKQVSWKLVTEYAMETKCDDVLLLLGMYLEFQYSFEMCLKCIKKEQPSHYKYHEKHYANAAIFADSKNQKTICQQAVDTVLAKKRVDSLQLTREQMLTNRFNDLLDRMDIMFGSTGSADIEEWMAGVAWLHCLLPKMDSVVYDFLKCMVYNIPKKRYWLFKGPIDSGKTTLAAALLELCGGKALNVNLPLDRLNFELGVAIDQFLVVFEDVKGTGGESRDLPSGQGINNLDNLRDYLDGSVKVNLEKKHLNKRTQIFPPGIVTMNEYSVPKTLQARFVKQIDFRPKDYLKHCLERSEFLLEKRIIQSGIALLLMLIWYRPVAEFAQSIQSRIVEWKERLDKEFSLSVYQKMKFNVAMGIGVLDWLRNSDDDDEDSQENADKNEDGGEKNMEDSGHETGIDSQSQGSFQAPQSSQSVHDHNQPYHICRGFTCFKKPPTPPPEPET
SWI/SNF-related matrix-associated actin-dependent regulator of chromatin subfamily A member 2, sequence (P51531 whole entry): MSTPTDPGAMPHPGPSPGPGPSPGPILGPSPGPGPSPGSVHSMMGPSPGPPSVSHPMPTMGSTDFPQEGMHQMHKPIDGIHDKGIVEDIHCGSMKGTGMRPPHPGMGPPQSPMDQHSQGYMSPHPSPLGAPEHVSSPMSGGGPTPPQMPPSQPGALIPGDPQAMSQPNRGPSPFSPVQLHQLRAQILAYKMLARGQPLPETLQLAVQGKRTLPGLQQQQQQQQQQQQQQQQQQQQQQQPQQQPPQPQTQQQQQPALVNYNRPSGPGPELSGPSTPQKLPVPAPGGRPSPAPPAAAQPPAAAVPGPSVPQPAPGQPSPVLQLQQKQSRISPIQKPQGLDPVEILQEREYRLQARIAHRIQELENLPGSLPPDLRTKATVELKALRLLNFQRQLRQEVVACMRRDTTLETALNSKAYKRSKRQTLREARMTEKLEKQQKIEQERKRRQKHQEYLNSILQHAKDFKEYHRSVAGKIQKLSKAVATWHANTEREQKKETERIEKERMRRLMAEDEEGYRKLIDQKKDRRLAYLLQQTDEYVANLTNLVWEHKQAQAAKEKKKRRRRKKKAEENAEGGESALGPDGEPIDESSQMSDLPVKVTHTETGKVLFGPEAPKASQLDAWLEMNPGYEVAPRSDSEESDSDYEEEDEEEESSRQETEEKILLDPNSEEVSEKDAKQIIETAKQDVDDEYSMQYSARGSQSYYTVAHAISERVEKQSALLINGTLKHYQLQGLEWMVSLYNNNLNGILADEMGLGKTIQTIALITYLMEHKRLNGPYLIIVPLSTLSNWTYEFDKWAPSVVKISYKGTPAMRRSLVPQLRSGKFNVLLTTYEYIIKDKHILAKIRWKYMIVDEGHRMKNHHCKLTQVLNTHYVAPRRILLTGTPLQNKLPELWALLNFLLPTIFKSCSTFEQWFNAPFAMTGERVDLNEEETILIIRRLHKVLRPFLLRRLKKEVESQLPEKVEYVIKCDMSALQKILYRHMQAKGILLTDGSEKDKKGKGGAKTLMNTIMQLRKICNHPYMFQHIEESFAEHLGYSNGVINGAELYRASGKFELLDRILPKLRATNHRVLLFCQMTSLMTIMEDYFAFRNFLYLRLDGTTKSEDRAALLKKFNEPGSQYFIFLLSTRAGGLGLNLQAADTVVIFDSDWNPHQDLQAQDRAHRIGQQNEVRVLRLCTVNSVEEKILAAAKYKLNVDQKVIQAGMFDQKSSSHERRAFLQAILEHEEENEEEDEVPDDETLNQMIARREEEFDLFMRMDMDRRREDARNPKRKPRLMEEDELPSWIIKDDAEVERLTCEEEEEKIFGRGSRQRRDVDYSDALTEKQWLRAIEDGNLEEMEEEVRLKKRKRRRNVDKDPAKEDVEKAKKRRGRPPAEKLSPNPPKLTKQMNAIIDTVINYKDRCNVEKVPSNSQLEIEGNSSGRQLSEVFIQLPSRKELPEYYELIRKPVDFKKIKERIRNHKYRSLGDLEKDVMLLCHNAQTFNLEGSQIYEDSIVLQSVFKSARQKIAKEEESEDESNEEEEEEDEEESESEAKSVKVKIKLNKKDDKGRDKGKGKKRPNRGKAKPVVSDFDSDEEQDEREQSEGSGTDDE

SMILES: CCCc1cc(=O)oc2c(C)c(OCC(=O)NCCCn3ccnc3)ccc12
IC50 [1]: 35.9 µM (inactive)
IC50 [2]: 35.9 µM (inactive)
IC50 [3]: 10.8 µM (inactive)

IC50 [4]: 80 µM (inactive)
SMILES: C/C(=N\NS(=O)(=O)c1ccc(Cl)c([N+](=O)[O-])c1)c1ccc(C)o1

SMILES: Cc1cccc(C)c1NC(=O)CSCC(=O)c1ccc(O)c(O)c1
IC50 [5]: 20.9 µM (active)
AC50 [6]: 2.43 µM (active)
IC50 [7]: 12.8 µM (active)
AC50 [8]: 15 µM (active)

SMILES: COc1ccc2nc(C)cc(Nc3ccc(N4CCN(C)CC4)cc3)c2c1
AC50 [9]: 2.45 µM (active)
EC50 [10]: > 10.1 µM (inactive)
EC50 [11]: > 3.38 µM (active)
AC50 [12]: 62 µM (active)
AC50 [13]: 52 µM (inactive)
AC50 [14]: 1.27 µM (active)
IC50 [15]: 11.4 µM (active)
